Laboratory results as given in patent publication US7271264B2, “Pentacyclic oxepines and derivatives thereof, compositions and methods” (Eli Lilly and Company, priority 2002, dated 2007).
pEC50, pIC50, pKi: −log10 of the molar value. Where a name gives a salt, the structure may show the parent alone.

Legend:
[1] = test system: Ishikawa human endometrial tumor cells; assay: Ishikawa alkaline phosphatase (PNPP) assay, agonist mode; type: cell-based; conditions: for Ishikawa Agonist % Eff: % efficacy versus the response to tamoxifen; for pEC50: Homo sapiens, Ishikawa
Description: (§1) Ishikawa human endometrial tumor cells are maintained in MEM (minimum essential medium, with Earle's salts and L-Glutamine, Gibco BRL, Gaithersburg, Md.), supplemented with 10% fetal bovine serum (FBS) (V/V), (Gibco BRL). One day prior to assay, growth media is changed to assay medium, DMEM/F-12 (3:1) (Dulbecco's Modified Eagle Medium: Nutrient Mixture F-12,3:1 Mixture, phenol red-free, Gibco BRL) supplemented with 5% dextran coated charcoal stripped fetal bovine serum (DCC-FBS) (Hyclone, Logen, Utah), L-Glutamine (2 mM), MEM sodium pyruvate (1 mM), HEPES (N-[2-hydroxyethyl]piperazine-N′-[2-ethanesulfonic acid] 2 mM) all from Gibco BRL). After an overnight incubation, ishikawa cells are rinsed with Dulbecco's Phosphate Buffered Saline (1×) (D-PBS) without Ca^+2 and Mg^+2 (Gibco BRL), and trypsinized by a 3 minute incubation with 0.25% Trypsin/EDTA, phenol red-free (Gibco BRL). Cells are resuspended in assay medium and adjusted to 250,000 cells/ml. Approximately 25,000 cells in a 100 ul media are added to flat-bottom 96 wells microculture plates (Costar 3596) and incubated at 37° C. in a 5% CO2 humidified incubator for 24 hours. The next day, serial dilutions of compounds are prepared in assay medium (at 6 times the final concentration in the assay). The assay is run in dual mode, agonist and antagonist modes. For the agonist mode, plates receive 25 μl/well of assay medium followed by 25 μl/well of diluted compounds (at 6× the final concentrations). For the antagonist mode, plates receive 25 μl/well of 6 nM E2 (β-Estradiol, Sigma, St. Louis, Mo.) followed by 25 μl/well of diluted compounds (at 6× the final concentrations). After an additional 48-hour incubation at 37° C. in a 5% CO2 humidified incubator, media is aspirated from wells and 100 μl fresh assay medium is added to each microculture. Serial dilutions of compounds are prepared and added to the cells as described above. After an additional 72 hour incubation at 37° C. in a 5% CO2 humidified incubator, the assay is quenched by removing media and rinsing plates twice in Dulbecco's Phosphate Buffered Saline (1×) (D-PBS) (Gibco BRL). The plates are dried for 5 min and frozen at −70° C. for at least 1 hour. The plates are then removed from the freezer and allowed to thaw at room temperature. To each well, 100 μl of 1-Step™ PNPP (Pierce Chemical Company, Rockford, Ill.) is added. After a 20-minute incubation, plates are read on a spectophotometer at 405 nm. The data is fitted to a linear interpolation to derive EC50 (for agonist mode) or IC50 (for antagonist mode) values. For the agonist mode, a % efficacy for each compound is calculated versus the response to tamoxifen. For the antagonist mode, a % efficacy for each compound is calculated versus E2 (1 nM) alone.

[2] = target: T1, ERAlpha receptor (PanVera) (Homo sapiens, UniProt P03372); assay: Competition binding assay, 3H-Estradiol, ERAlpha receptor; conditions: 3H-Estradiol competition; IC50 converted to Ki using Cheng-Prusoff equation; read-out: ER binding Ki (ERα)
T1 construct: purchased PanVera
T1 sequence (P03372 1-595): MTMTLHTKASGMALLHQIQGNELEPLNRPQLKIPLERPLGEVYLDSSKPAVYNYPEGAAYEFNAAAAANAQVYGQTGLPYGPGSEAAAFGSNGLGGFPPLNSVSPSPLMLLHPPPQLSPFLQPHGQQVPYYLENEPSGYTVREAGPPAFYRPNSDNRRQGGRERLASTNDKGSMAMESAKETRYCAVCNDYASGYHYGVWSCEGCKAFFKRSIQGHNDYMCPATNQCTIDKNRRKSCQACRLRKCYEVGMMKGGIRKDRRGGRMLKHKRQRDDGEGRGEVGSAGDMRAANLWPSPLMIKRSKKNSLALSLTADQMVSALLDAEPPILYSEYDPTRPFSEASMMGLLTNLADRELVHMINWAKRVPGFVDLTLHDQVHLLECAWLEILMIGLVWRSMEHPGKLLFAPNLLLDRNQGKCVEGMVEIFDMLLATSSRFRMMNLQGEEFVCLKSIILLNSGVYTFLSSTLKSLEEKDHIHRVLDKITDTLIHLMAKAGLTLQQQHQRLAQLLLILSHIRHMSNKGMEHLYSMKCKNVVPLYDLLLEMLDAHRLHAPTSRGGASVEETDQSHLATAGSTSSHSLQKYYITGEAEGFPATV
Description: (§2) Competition binding assay is run in a buffer containing 50 mM Hepes, pH 7.5, 1.5 mM EDTA, 150 mM NaCl, 10% glycerol, 1 mg/ml ovalbumin and 5 mM DTT, using 0.025 μCi per well ^3H-Estradiol(NEN #NET517 at 118 Ci/mmol, 1 mCi/ml), 10 ng/well ERAlpha or ERbeta receptor (PanVera). Competing compounds are added at 10 different concentrations. Non-specific binding is determined in the presence of 1 μM of 17-B Estradiol. The binding reaction (140 μl) is incubated for 4 hours at room temperature, then 70 μl of cold DCC buffer is added to each reaction (DCC buffer contains per 50 ml of assay buffer, 0.75 g of charcoal (Sigma) and 0.25 g of dextran (Pharmacia)). Plates are mixed 8 minutes on an orbital shaker at 4° C. Plates are then centrifuged at 3,000 rpm at 4° C. for 10 minutes. An aliquot of 120 μl of the mix is transferred to another 96-well, white flat bottom plate (Costar) and 175 μl of Wallac Optiphase “Hisafe 3” scintillation fluid is added to each well. Plates are sealed and shaken vigorously on an orbital shaker. After an incubation of 2.5 hrs, read plates in a Wallac Microbeta counter. The data is used to calculate an IC50 and % Inhibition at 10 μM. The Kd for ^3H-Estradiol is determined by saturation binding to ER alpha and ER beta receptors. The IC50 values for compounds are converted to Ki using Cheng-Prusoff equation and the Kd determined by saturation binding assay.

[3] = test system: Ishikawa human endometrial tumor cells; assay: Ishikawa alkaline phosphatase (PNPP) assay, antagonist mode; type: cell-based; conditions: with E2 (1 nM)
Description: as §1

[4] = test system: MCF-7 breast adenocarcinoma cells; assay: MCF-7 proliferation assay (14C-thymidine), antagonist mode; type: cell-based; conditions: E2 10 pM
Description: MCF-7 breast adenocarcinoma cells (ATCC HTB 22) are maintained in MEM (minimal essential medium, phenol red-free, Gibco BRL) supplemented with 10% fetal bovine serum (FBS) (VV), L-glutamine (2 mM), sodium pyruvate (1 mM), HEPES ((N-[2-hydroxyethyl]piperazine-N′-[2-ethanesulfonic acid]10 mM}, non-essential amino acids (0.1 mM) and Penicillin Streptomycin (1×). Seven days prior to assay, MCF-7 cells are switched to assay media which is the same as maintenance medium except supplemented with 10% dextran-coated charcoal-stripped fetal bovine serum (DCC-FBS) assay medium in place of 10% FBS. MCF-7 cells are removed from flasks using 10× Trypsin EDTA (phenol red free, Gibco BRL) and diluted to IX in (Ca++/Mg++ free HBSS (phenol red-free). Cells are adjusted to 80,000 cells/ml in assay medium. Approximately 8,000 cells (100 μl) are added to each well in 96 well Cytostar T scintillation plates (Amersham) and incubated at 37° C. in a 5% CO2 humidified incubator for 24 hours to allow cell adherence and equilibration after transfer. Serial dilutions of drugs are prepared in assay medium at 4× the final desired concentration). A 50 μl aliquot of drug dilutions (at 4× the final assay concentration) is transferred to duplicate wells followed by 50 μl assay medium for the agonist mode or 50 μl of 40 pM of E2 for the antagonist mode to a final volume of 200 μl. For each of the agonist plates, a basal level (media) and a maximum stimulated level (with 1 μM E2) is determined. For each of the antagonist plates, a basal level (media) and a E2 (10 pM) alone control is determined. After an additional 48 hours at 37° C. in a 5% CO2 humidified incubator, 20 μl of assay medium containing 0.01 μCi of ^14C-thymidine (52 mCi/mmol, 50 μCi/ul, Amersham) is added to each well. The plates are incubated overnight in the same incubator and then counted on the Wallac Microbeta counter. The data is averaged to calculate an IC50 and % inhibition @ 1 μM for the antagonist mode. For the agonist mode, an EC50 and percent of maximum E2 stimulation and concentration of maximum stimulation is calculated.

[5] = target: T2, ERbeta receptor (PanVera) (Homo sapiens, UniProt Q92731); assay: Competition binding assay, 3H-Estradiol, ERbeta receptor; conditions: 3H-Estradiol competition; IC50 converted to Ki using Cheng-Prusoff equation; read-out: ER binding Ki (ERβ)
T2 construct: purchased PanVera
Description: as §2

[6] = antagonist mode, hydrochloride salt
[7] = Homo sapiens, MCF7, antagonist mode

T2 sequence (Q92731 whole entry): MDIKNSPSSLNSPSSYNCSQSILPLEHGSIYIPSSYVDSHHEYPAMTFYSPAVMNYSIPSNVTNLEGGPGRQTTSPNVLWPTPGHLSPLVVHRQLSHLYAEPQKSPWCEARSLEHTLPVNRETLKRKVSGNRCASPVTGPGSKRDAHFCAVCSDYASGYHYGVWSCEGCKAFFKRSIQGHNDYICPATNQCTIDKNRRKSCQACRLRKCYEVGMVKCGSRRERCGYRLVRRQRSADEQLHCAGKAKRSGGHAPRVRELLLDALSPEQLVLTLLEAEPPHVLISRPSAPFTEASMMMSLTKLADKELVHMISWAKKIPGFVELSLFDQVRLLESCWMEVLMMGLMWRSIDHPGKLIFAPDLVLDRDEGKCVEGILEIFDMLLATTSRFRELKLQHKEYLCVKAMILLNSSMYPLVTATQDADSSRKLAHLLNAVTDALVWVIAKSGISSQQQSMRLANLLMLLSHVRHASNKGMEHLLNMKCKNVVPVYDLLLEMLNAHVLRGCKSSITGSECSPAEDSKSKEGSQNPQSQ

Row | Structure (SMILES) | Ishikawa Agonist % Eff [1] [%] | pEC50 [1] | pKi [2] | pIC50 [3] | pIC50 ([4]; antagonist mode) | pKi [5] | Ishikawa Agonist % Eff ([1]; hydrochloride salt) [%] | pIC50 ([3]; hydrochloride salt) | pIC50 [4, 6] | pIC50 ([3]; Homo sapiens, Ishikawa) | pIC50 [4, 7]
1 | Cl.Oc1ccc2c(c1)COC(c1ccc(OCCN3CCCCC3)cc1)c1c-2ccc2cc(O)ccc12 (single isomer, unassigned) [Example 6, 11-[4-(2-Piperidin-1-yl-ethoxy)-phenyl]-11,13-dihydro-12-oxa-benzo[3,4]cyclohepta[1,2-a]naphthalene-2,8-diolhydrochloride salt] | 38 | 7.27 | 7.24 | 6.13 | 6.80 | 6.92 | – | – | – | – | –
2 | Cl.Oc1ccc2c(c1)COC(c1ccc(OCCN3CCCCC3)cc1)c1c-2ccc2cc(O)ccc12 (single isomer, unassigned) [Example 7, 11-[4-(2-Piperidin-1-yl-ethoxy)-phenyl]-11,13-dihydro-12-oxa-benzo[3,4]cyclohepta[1,2-a]naphthalene-2,8-diolhydrochloride salt] | 2.6 | – | 9.15 | 8.66 | 9.40 | 8.77 | – | – | – | – | –
3 | Cl.Oc1ccc2c3c(ccc2c1)-c1ccc(F)cc1COC3c1ccc(OCCN2CCCCC2)cc1 (single isomer, unassigned) [Example 8, 2-Fluoro-11-[4-(2-piperidin-1-yl-ethoxy)-phenyl]-11,13-dihydro-12-oxa-benzo[3,4]cyclohepta[1,2-a]naphthalen-8-ol hydrochloride salt] | – | – | 9.15 | – | – | 8.85 | 8.8 | 8.37 | 9.40 | – | –
4 | Cl.Oc1ccc2c3c(ccc2c1)-c1ccc(F)cc1COC3c1ccc(OCCN2CCCCC2)cc1 (single isomer, unassigned) [Example 9, 2-Fluoro-11-[4-(2-piperidin-1-yl-ethoxy)-phenyl]-11,13-dihydro-12-oxa-benzo[3,4]cyclohepta[1,2-a]naphthalen-8-ol hydrochloride salt] | – | – | 7.21 | – | – | 7.05 | 11 | 6.46 | 7.17 | – | –
5 | COc1ccc2c3c(sc2c1)-c1ccccc1COC3c1ccc(OCCN2CCCCC2)cc1 (stereo not drawn) [Example 1, 1-{2-[4-(10-Methoxy-5H,7H-6-oxa-12-thia-dibenzo[a,e]azulen-7-yl)-phenoxy]-ethyl}-piperidine] | 31 | 6.52 | 6.62 | – | – | – | – | – | – | – | –
6 | Oc1ccc2c3c(sc2c1)-c1ccccc1COC3c1ccc(OCCN2CCCCC2)cc1 (stereo not drawn) [Example 2, 7-[4-(2-Piperidin-1-yl-ethoxy)-phenyl]-5H,7H-6-oxa-12-thia-dibenzo[a,e]azulen-10-ol] | 41 | 8.55 | 8.54 | – | – | 7.72 | – | – | – | 6.57 | 7.44
7 | COc1ccc2c3c(ccc2c1)-c1ccccc1COC3c1ccc(OCCN2CCCCC2)cc1 (stereo not drawn) [Example 3, 1-{2-[4-(8-Methoxy-11,13-dihydro-12-oxa-benzo[3,4]cyclohepta[1,2-a]naphthalen-11-yl)-phenoxy]-ethyl}-piperidine] | 21 | 6.59 | 6.85 | – | – | 6.37 | – | – | – | 6.47 | 6.32
8 | Oc1ccc2c3c(ccc2c1)-c1ccccc1COC3c1ccc(OCCN2CCCCC2)cc1 (stereo not drawn) [Example 4, 11-[4-(2-Piperidin-1-yl-ethoxy)-phenyl]-11,13-dihydro-12-oxa-benzo[3,4]cyclohepta[1,2-a]naphthalen-8-ol trifluoroacetate] | 17 | 8.85 | 8.59 | – | – | 8.40 | – | – | – | 7.44 | 8.62
